Measurements: patent publication US20230143604A1, “QW DOSING OF GIP RECEPTOR AGONIST PEPTIDE COMPOUNDS AND USES THEREOF” (TAKEDA PHARMACEUTICAL COMPANY LIMITED, priority 2020, published 2023)

Experiments:
[1] = system: C57BL/6J mice; test: Oral glucose tolerance test (OGTT); format: in vivo; conditions: 3 nmol/kg s.c., 24 hours before glucose loading
Protocol: An oral glucose tolerance test (OGTT) was carried out using C57BL/6J mice with a 50% dextrose solution dosed at 5 ml/kg. Testing concentrations of 0.1 nmol/kg, 0.3 nmmol/kg, 3 nmol/kg or 10 nmol/kg were selected depending on the peptide. Each peptide or a vehicle (control group) was subcutaneously administered 24 hours (unless shown otherwise) before glucose loading and the blood glucose was measured at 0, 15, 30, and 60 minutes after glucose dosing.
% inhibition=(1−(AUC cpd−AUC naïve/AUC veh−AUC naïve))×100.

[2] = Solubility in phosphate buffer pH 7.4
Summary of the method: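 3 mg of peptide treated with 100 μL portions of 200 mM phosphate buffer pH 7.4, sonicating/vortexing up to 1 min, with further buffer added until fully dissolved. Solubility then quantified by HPLC.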

[3] = target: T1, human GLP-1R (Homo sapiens, UniProt P43220); test: Human GLP1R agonist activity, intracellular cAMP accumulation; format: cell-based; conditions: Human GLP1R cAMP EC50, HEK293T (nM), HEK-293T cells overexpressing human GLP-1R, 1 hr
T1 construct: HEK-293T cells overexpressing full-length human GLP-1R; FLAG (N); host or cells: HEK-293T
Protocol: Cells are cultured per the manufacturer's protocol in DMEM with 10% fetal bovine serum and 1 μg/mL puromycin and stored in frozen aliquots to be used as assay ready cells. On the day of the assay, cells are removed from frozen storage, washed two times in 1× Kreb's Ringer Buffer (Zenbio, Research Triangle Park, N.C.), and re-suspended to a concentration of 4×10^5 cells/mL in 1× Kreb's Ringer Buffer. […] Cells are incubated with test compound for 1 hr at room temperature in the dark, and cAMP accumulation is measured using the Cisbio HiRange cAMP assay kit (Bedford, Mass.) per the manufacturer's protocol. Anti-cAMP antibody and d2-cAMP tracer reagents diluted in lysis/detection buffer are incubated in the dark for 1 hr, and results are measured on an Envision plate reader (Perkin Elmer, Waltham, Mass.). Data is normalized using 1 nm GLP-1 as 100% activity, and DMSO alone as 0% activity.

[4] = pH 7.4, aqueous buffer, pH 7.4 Phosphate Buffer - Solubility, 200 mM Phosphate buffer pH 7.4
[5] = pH 7.4, solubility in phosphate buffer at pH 7.4, 200 mM phosphate buffer pH 7.4

T1 sequence (P43220 24-463): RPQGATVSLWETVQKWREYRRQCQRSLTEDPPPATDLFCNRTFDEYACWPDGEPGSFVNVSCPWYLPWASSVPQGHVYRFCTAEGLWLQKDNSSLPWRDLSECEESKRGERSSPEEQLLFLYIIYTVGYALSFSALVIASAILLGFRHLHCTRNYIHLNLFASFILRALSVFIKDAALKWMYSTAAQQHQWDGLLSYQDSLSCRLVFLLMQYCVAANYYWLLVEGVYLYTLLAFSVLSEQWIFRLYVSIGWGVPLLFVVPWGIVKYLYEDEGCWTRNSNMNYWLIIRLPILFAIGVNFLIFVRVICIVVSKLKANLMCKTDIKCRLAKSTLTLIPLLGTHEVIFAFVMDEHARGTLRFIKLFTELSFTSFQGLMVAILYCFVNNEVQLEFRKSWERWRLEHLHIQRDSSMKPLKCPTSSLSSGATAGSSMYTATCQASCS

Structure (SMILES)	Oral Glucose Tolerance Test Percent decrease in blood glucose AUC (%) over 60 mins [1]	solubility [2, 4] [mg/mL]	solubility [2, 5] [mg/mL]	solubility ([2]; pH 7.4) [mg/mL]	solubility ([2]; pH 7.4, aqueous buffer) [mg/mL]	EC50 [3] [nM]
CC[C@H](C)[C@H](NC(=O)[C@H](Cc1ccccc1)NC(=O)[C@@H](NC(=O)CNC(=O)[C@H](CCC(=O)O)NC(=O)C(C)(C)NC(=O)[C@H](Cc1ccc(O)cc1)NC)[C@@H](C)O)C(=O)N[C@@H](CO)C(=O)N[C@@H](CC(=O)O)C(=O)N[C@@H](Cc1ccc(O)cc1)C(=O)N[C@@H](CO)C(=O)N[C@H](C(=O)NC(C)(C)C(=O)N[C@@H](CCCCNC(=O)CNC(=O)CNC(=O)CNC(=O)CNC(=O)CNC(=O)CCCCCCCCCCCCCCCCC(=O)O)C(=O)N[C@@H](CC(=O)O)C(=O)N[C@@H](CCCNC(=N)N)C(=O)NC(C)(C)C(=O)N[C@@H](C)C(=O)N[C@@H](CCC(N)=O)C(=O)NC(C)(C)C(=O)N[C@@H](CC(=O)O)C(=O)N[C@@H](Cc1ccccc1)C(=O)N[C@H](C(=O)N[C@@H](CC(N)=O)C(=O)N[C@@H](Cc1c[nH]c2ccccc12)C(=O)N[C@@H](CC(C)C)C(=O)N[C@@H](CC(C)C)C(=O)N[C@@H](C)C(=O)N[C@@H](CCC(N)=O)C(=O)N[C@@H](CO)C(=O)N1CCC[C@H]1C(=O)N[C@@H](CO)C(=O)N[C@@H](CO)C(=O)NCC(=O)N[C@@H](C)C(=O)N1CCC[C@H]1C(=O)N1CCC[C@H]1C(=O)N1CCC[C@H]1C(=O)N[C@@H](CO)C(=O)O)C(C)C)[C@@H](C)CC [Compound 47]	48% (3 nmol/kg)	≥ 30	≥ 15			
CC[C@H](C)[C@H](NC(=O)[C@H](CO)NC(=O)[C@H](Cc1ccc(O)cc1)NC(=O)[C@H](CC(=O)O)NC(=O)[C@H](CO)NC(=O)[C@@H](NC(=O)[C@H](Cc1ccccc1)NC(=O)[C@@H](NC(=O)CNC(=O)[C@H](CCC(=O)O)NC(=O)C(C)(C)NC(=O)[C@H](Cc1ccc(O)cc1)NC)[C@@H](C)O)[C@@H](C)CC)C(=O)N[C@@H](C)C(=O)N[C@@H](CCCCNC(=O)CNC(=O)CNC(=O)CNC(=O)CNC(=O)CNC(=O)CCCCCCCCCCCCCCCCCCC(=O)O)C(=O)N[C@@H](CC(=O)O)C(=O)N[C@@H](CCCNC(=N)N)C(=O)NC(C)(C)C(=O)N[C@@H](C)C(=O)N[C@@H](CCC(N)=O)C(=O)NC(C)(C)C(=O)N[C@@H](CC(=O)O)C(=O)N[C@@H](Cc1ccccc1)C(=O)N[C@H](C(=O)N[C@@H](CC(N)=O)C(=O)N[C@@H](Cc1c[nH]c2ccccc12)C(=O)N[C@@H](CC(C)C)C(=O)N[C@@H](CC(C)C)C(=O)N[C@@H](C)C(=O)N[C@@H](CCC(N)=O)C(=O)N[C@@H](CO)C(=O)N1CCC[C@H]1C(=O)NCC(=O)O)C(C)C [Compound 111]	44% (3 nmol/kg)			≥ 15	≥ 30	
CC[C@H](C)[C@H](NC(=O)[C@H](CO)NC(=O)[C@H](Cc1ccc(O)cc1)NC(=O)[C@H](CC(=O)O)NC(=O)[C@H](CO)NC(=O)[C@@H](NC(=O)[C@H](Cc1ccccc1)NC(=O)[C@@H](NC(=O)CNC(=O)[C@H](CCC(=O)O)NC(=O)C(C)(C)NC(=O)[C@H](Cc1ccc(O)cc1)NC)[C@@H](C)O)[C@@H](C)CC)C(=O)N[C@@H](C)C(=O)N[C@@H](CCCCNC(=O)CNC(=O)CNC(=O)CNC(=O)CNC(=O)CNC(=O)CCCCCCCCCCCCCCCCC(=O)O)C(=O)N[C@@H](CC(=O)O)C(=O)N[C@@H](CCCNC(=N)N)C(=O)NC(C)(C)C(=O)N[C@@H](C)C(=O)N[C@@H](CCC(N)=O)C(=O)NC(C)(C)C(=O)N[C@@H](CC(=O)O)C(=O)N[C@@H](Cc1ccccc1)C(=O)N[C@H](C(=O)N[C@@H](CC(N)=O)C(=O)N[C@@H](Cc1c[nH]c2ccccc12)C(=O)N[C@@H](CC(C)C)C(=O)N[C@@H](CC(C)C)C(=O)N[C@@H](C)C(=O)N[C@@H](CCC(N)=O)C(=O)N[C@@H](CCCNC(=N)N)C(=O)N1CCC[C@H]1C(=O)N[C@@H](CO)C(=O)N[C@@H](CO)C(=O)NCC(=O)O)C(C)C [Compound 70]	56% (3 nmol/kg)			≥ 15	≥ 30	
CC[C@H](C)[C@H](NC(=O)[C@H](Cc1ccccc1)NC(=O)[C@@H](NC(=O)CNC(=O)[C@H](CCC(=O)O)NC(=O)C(C)(C)NC(=O)[C@@H](N)Cc1ccc(O)cc1)[C@@H](C)O)C(=O)N[C@@H](CO)C(=O)N[C@@H](CC(=O)O)C(=O)N[C@@H](Cc1ccc(O)cc1)C(=O)N[C@@H](CO)C(=O)N[C@H](C(=O)NC(C)(C)C(=O)N[C@@H](CCCCNC(=O)CNC(=O)CNC(=O)CNC(=O)CNC(=O)CNC(=O)CCCCCCCCCCCCCCCCC(=O)O)C(=O)N[C@@H](CC(=O)O)C(=O)N[C@@H](CCCNC(=N)N)C(=O)N[C@@H](C)C(=O)N[C@@H](C)C(=O)N[C@@H](CCC(N)=O)C(=O)N[C@@H](C)C(=O)N[C@@H](CC(=O)O)C(=O)N[C@@H](Cc1ccccc1)C(=O)N[C@H](C(=O)N[C@@H](CCC(=O)O)C(=O)N[C@@H](Cc1c[nH]c2ccccc12)C(=O)N[C@@H](CC(C)C)C(=O)N[C@@H](CC(C)C)C(=O)N[C@@H](C)C(=O)N[C@@H](CCC(N)=O)C(=O)N[C@@H](CCCNC(=N)N)C(=O)NCC(=O)O)C(C)C)[C@@H](C)CC [Compound 148]	51% (3 nmol/kg)			≥ 15	≥ 30	
CC[C@H](C)[C@H](NC(=O)[C@H](CO)NC(=O)[C@H](Cc1ccc(O)cc1)NC(=O)[C@H](CC(=O)O)NC(=O)[C@H](CO)NC(=O)[C@@H](NC(=O)[C@H](Cc1ccccc1)NC(=O)[C@@H](NC(=O)CNC(=O)[C@H](CCC(=O)O)NC(=O)C(C)(C)NC(=O)[C@H](Cc1ccc(O)cc1)NC)[C@@H](C)O)[C@@H](C)CC)C(=O)N[C@@H](C)C(=O)N[C@@H](CCCCNC(=O)CNC(=O)CNC(=O)CNC(=O)CNC(=O)CNC(=O)CCCCCCCCCCCCCCCCC(=O)O)C(=O)N[C@@H](CC(=O)O)C(=O)N[C@@H](CCCNC(=N)N)C(=O)NC(C)(C)C(=O)N[C@@H](C)C(=O)N[C@@H](CCC(N)=O)C(=O)NC(C)(C)C(=O)N[C@@H](CC(=O)O)C(=O)N[C@@H](Cc1ccccc1)C(=O)N[C@H](C(=O)N[C@@H](CC(N)=O)C(=O)N[C@@H](Cc1c[nH]c2ccccc12)C(=O)N[C@@H](CC(C)C)C(=O)N[C@@H](CC(C)C)C(=O)N[C@@H](C)C(=O)N[C@@H](CCC(N)=O)C(=O)N[C@@H](CCCNC(=N)N)C(=O)NCC(=O)O)C(C)C [Compound 63]	41% (3 nmol/kg)			≥ 15		
CC[C@H](C)[C@H](NC(=O)[C@H](Cc1ccccc1)NC(=O)[C@@H](NC(=O)CNC(=O)[C@H](CCC(=O)O)NC(=O)C(C)(C)NC(=O)[C@@H](N)Cc1ccc(O)cc1)[C@@H](C)O)C(=O)N[C@@H](CO)C(=O)N[C@@H](CC(=O)O)C(=O)N[C@@H](Cc1ccc(O)cc1)C(=O)N[C@@H](CO)C(=O)N[C@H](C(=O)NC(C)(C)C(=O)N[C@@H](CCCCNC(=O)CNC(=O)CNC(=O)CNC(=O)CNC(=O)CNC(=O)CCCCCCCCCCCCCCCCC(=O)O)C(=O)N[C@@H](CC(=O)O)C(=O)N[C@@H](CCCNC(=N)N)C(=O)NC(C)(C)C(=O)N[C@@H](C)C(=O)N[C@@H](CCC(N)=O)C(=O)N[C@@H](C)C(=O)N[C@@H](CC(=O)O)C(=O)N[C@@H](Cc1ccccc1)C(=O)N[C@H](C(=O)N[C@@H](CCC(=O)O)C(=O)N[C@@H](Cc1c[nH]c2ccccc12)C(=O)N[C@@H](CC(C)C)C(=O)N[C@@H](CC(C)C)C(=O)N[C@@H](C)C(=O)N[C@@H](CCC(N)=O)C(=O)N[C@@H](CCCNC(=N)N)C(=O)NCC(=O)O)C(C)C)[C@@H](C)CC [Compound 146]	52% (3 nmol/kg)			≥ 15	≥ 30	
CC[C@H](C)[C@H](NC(=O)[C@H](Cc1ccccc1)NC(=O)[C@@H](NC(=O)CNC(=O)[C@H](CCC(=O)O)NC(=O)C(C)(C)NC(=O)[C@H](Cc1ccc(O)cc1)NC)[C@@H](C)O)C(=O)N[C@@H](CO)C(=O)N[C@@H](CC(=O)O)C(=O)N[C@@H](Cc1ccc(O)cc1)C(=O)N[C@@H](CO)C(=O)N[C@H](C(=O)NC(C)(C)C(=O)N[C@@H](CCCCNC(=O)CNC(=O)CNC(=O)CNC(=O)CNC(=O)CNC(=O)CCCCCCCCCCCCCCCC(=O)O)C(=O)N[C@@H](CC(=O)O)C(=O)N[C@@H](CCCNC(=N)N)C(=O)NC(C)(C)C(=O)N[C@@H](C)C(=O)N[C@@H](CCC(N)=O)C(=O)NC(C)(C)C(=O)N[C@@H](CC(N)=O)C(=O)N[C@@H](Cc1ccccc1)C(=O)N[C@H](C(=O)N[C@@H](CC(N)=O)C(=O)N[C@@H](Cc1c[nH]c2ccccc12)C(=O)N[C@@H](CC(C)C)C(=O)N[C@@H](CC(C)C)C(=O)N[C@@H](C)C(=O)N[C@@H](CCC(N)=O)C(=O)N[C@@H](CO)C(=O)N1CCC[C@H]1C(=O)N[C@@H](CO)C(=O)N[C@@H](CO)C(=O)NCC(=O)N[C@@H](C)C(=O)N1CCC[C@H]1C(=O)N1CCC[C@H]1C(=O)N1CCC[C@H]1C(=O)N[C@@H](CO)C(=O)O)C(C)C)[C@@H](C)CC [Compound 95]		≥ 60	≥ 15			17.4
